Where two headings read alike, the source gives them in different places. Where a SMILES comes first, the peptide text is derived from it. The star is where a group is joined. NHC(CH2OLauroyl)3 = CCCCCCCCCCCC(=O)OCC(COC(=O)CCCCCCCCCCC)(COC(=O)CCCCCCCCCCC)N*

The test system of one data set is PC3. In words: Transfection of PC3 cells. Particulars: PC3, FIG. 22a. The format is cell-based, human. An excerpt:
(§1) Increasing the length of the linker portion of peptide/fatty acyl conjugates dramatically improves their transfection properties both in overall levels of reporter gene expression and also in the proportion of cells transfected. It is particularly noticable that peak levels of transfection are achieved using these reagents at a relatively low level of toxicity. […] This improved capacity of conjugates with longer linkers to promote transfection appears to be independent of cell type.

In another data set the test system is Jurkat T cell line. In words: Transfection of Jurkat cells. The format is cell-based, Human. The following applies: FIG. 22b.
Description: as §1

Data set [1] has as its system CHO cells. In words: Oligonucleotide transfection (18-mer fluoresceinated phosphorothioate), CHO. The format is cell-based, Chinese Hamster. The following applies: 3 hours. Here is the method: (§2) An 18-mer 5'-fluoresceinated phosphorothioate oligonucleotide was transfected into CHO cells. A comparison was made between the ability of K3C7ATL3, K3ATL3 and no-agent, to transfect the oligonucleotide into the cells. The oligonucleotide was serially diluted from 121.2 μM nucleotide, to 60.6 and 30.3 μM nucleotide. The test lipopeptides were serially diluted from 84 μM , to 42 and 21 μM. These dilutions were combined in a 3×3 matrix resulting in concentrations half that described. That is, the top dilution of oligonucleotide became 60.6 μM nucleotide (3.37 μM 18-mer oligonucleotide) and lipopeptide 42 μM. The mix was allowed to incubate for 10 min at room temperature and then overlayed on CHO cells (seeded at 1×10^4 /well the previous day). washed free of serum with DDME, in a total volume of 100 μl. Wells receiving mix with no test agent had the three different concentrations of oligonucleotide overlayed under the same conditions.
(§3) After 3 hours of incubation under standard conditions of 37° C. and 5% CO2, the mix was removed and replaced with 50 μl of DDME. The cells were viewed live under the confocal microscope. The level of fluorescence was so high that the pinhole aperture for the LASER on the BioRad MRC 500 confocal microscope, was shut down to minimum. All images were then collected on the same settings for a quantitative comparison.
After confocal analysis, 100 μl of EMEM+10% FCS was added back to the wells and cells were incubated under standard conditions overnight. Cells were re-examined for fluorescence.

The nature of another data set: in vitro. The format is cell-based, Chinese Hamster. The following applies: hamster, cho cells. The procedure: as §2, §3
A short description of data set [2]: Electron microscopy of formulated and unformulated compounds. It counts as physicochemical. Particulars: rotary shadowed. Here is the method: Solutions of formulated and unformulated compounds were analysed for potential membrane-like structure. In separate experiments the following samples were analysed:
a: Negatively stained samples of formulated compounds K3ATP2:DOPE, DOPE and the unformulated compounds K3C7ATL3 and Lipofectamine.
b: Rotary shadowed samples of K3C7ATL3 and Lipofectamine mixed with two ratios of nucleotide (plasmid).
Stock samples of liposomes at 2 mM, were diluted 1 in 10 with filtered distilled water, and mixed 1:1 with filtered negative stain (Ammonium Molybdate 2%, pH 6.5) and spread onto carbon-formvar coated copper/rhodium 200 mesh electron microscope grids, and examined in a Jeol JEM 100CX electron microscope at 60 kV at magnifications of between 33 k and 100 k.
Ratios of 0.69, and 0.25, of liposome:1 mole DNA nucleotides were diluted in water and mixed for 10 min at room temperature, spread onto carbon-formvar coated grids and rotary metal-shadowed with platinum-palladium (60:40) evaporated at an angle of 7° and examined in the electron microscope at 60 kV at magnifications between 26 k and 66 k.

The subject of data set [3] is cells. Put plainly: β-gal reporter transfection, "y" linker non-standard amino acids. The format is cell-based. The following applies: K3 "y" TL3 compounds. Here is the method:
Peptide/fatty acyl conjugates were synthesized using the non-standard amino acids amino butyric (C3), amino caproic (C5) and amino caprylic (C7) acids as the linker groups, a tri-lysine nucleic acid binding domain and laurate for the three fatty acyl groups. In these new conjugates the DNA binding and tris/fatty acyl moieties were separated by an extra 3, 5 and 7 carbon bond lengths respectively when compared with the prototype molecule. These compounds were then tested in the standard manner described above to determine their relative capacity to transfect cells.
K3 "y" TL3 compounds, where y=C3, C5, C7, A, L, G were compared for transfection efficiency to each other and the commercial agent Lipofectamine using the standard β-gal reporter gene system described above.

For data set [4], the system named is Cos 1 cells. In words: β-gal microtitre plate transfection assay, Cos 1. The format is cell-based, African Green Monkey. The procedure, abridged:
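Cos 1 cells were transfected with β-galactosidase plasmids (mouse PGK or SV40 early promoter) across varied lipid/DNA ratios in microtitre format. The lipid/DNA ratio giving maximal expression was recorded. Viability was measured with alamar blue or MTS, where higher OD means greater viability.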

For data set [5], the system named is CHO cells. In words: β-gal microtitre plate transfection assay, CHO. The following applies: Table 3, CHO. It counts as cell-based, Chinese Hamster. An excerpt: For experiment "c", a plasmid pPGKlaczNLS encoding β-galactosidase under the control of the mouse PGK promoter (kind gift from G.Hannan) or pSVGAL which utilises the SV40 early promoter (Sleigh, M. J. and Lockett, T. J. (1985). EMBO J. 4:3831-3837),was transfected. This experiment and assay were modified from Feigner et al J. Biol Chem. 269(4) 2550-2561 1994. This protocol allows the simultaneous assessment of 72 different combinations and concentrations of DNA and test agent in a microtitre tray. […] Cytotoxicity was assessed using alamar blue, and a sample graph is shown for experiment a.
Each of these compounds was tested for transfection ability and cytotoxicity on standard cell lines using standard conditions as described above.
(§4) The ratio of [lipid]/[DNA] at which that maximum was achieved is shown in brackets for the two different cell types in the following order; (Cos 1) (CHO). Experiments shown were carried out in Cos 1 cells, as described above. Viability was measured with the dye alamar blue . # Denotes compounds tested in a separate experiment. * Viability in this experiment was determined with MTS. OD is a measure of relative viability of the cells exposed to the different agents, and as with alamar blue, a higher value indicates greater cell viability.

Data set [6] has as its system Cos 1 cells. The format is cell-based, African Green Monkey. The procedure, abridged: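 Relative viability of Cos 1 cells exposed to lipid/DNA agents was read as MTS optical density; higher OD means greater viability. Some points came from separate experiments.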
In data set [7] the test system is Cos 1 cells. It counts as cell-based, African Green Monkey. The gist of the method: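 Cytotoxicity of transfection agents (lipid/DNA combinations, β-galactosidase plasmid under PGK or SV40 early promoter) assessed in parallel with transfection. Viability read with alamar blue or, in some runs, MTS OD; higher signal means greater relative viability.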
This is another data set of the same source.

The test system of data set [8] is CHO cells. The format is cell-based, Chinese Hamster. The procedure: (LEGEND--FIGS. 7, 8 and 9; none; no agent used with plasmid DNA, rb/blank; reagent blank, number following description of compound indicates no. μl of 2 mM stock (diluted with water). 7b: 100% cell survival was taken from dishes which were "mock transfected" with no DNA or transfection agent. 0% viability was assayed in the absence of cells. Viability was assessed using the dye alamar blue.)
Relative levels of cytotoxicity caused by the different agents were compared during the experiment using the dye "Alamar Blue" (Alamar, Sacramento Calif.).
as §4

The subject of data set [9] is Hela cells. Put plainly: β-gal plate transfection assay, Hela. It counts as cell-based, Human. The following applies: 48 hours.
Description: (§5) Hela cells were seeded in place of Cosl or CHO cells in DME+10% FCS at a density of 2×10^4 /well and transfected with pPGKlaczNLS as described above. At 48 hours, toxicity was determined by alamar blue and the cells processed for the β-gal assay.
In another data set the test system is leg muscle. In words: In vivo transfection (pGFP-N1, intramuscular). Set-up: species or system hairless mouse. The following applies: 10 μg pGFP-N1, 24 hours. The procedure: The plasmid pGFP-N1 (Clontech) encoding the Green Fluorescent Protein, was diluted 10 μg (in 10 μl) into 20 μl 5% dextrose in water and then combined with 2.1 μl of 10 mM K3ATL3 (10% DMSO) in 27.9 μl of 5% dextrose in water. After 10 min incubation at room temperature the mixture was injected into the leg muscle of a hairless mouse. The mouse was sacrificed after 24 hours and the muscle snap frozen on dry ice. Frozen sections of the tissue were made and analysed under the confocal microscope for fluorescence.

The test system of data set [10] is cells. In words: β-gal plate assay of unformulated mixtures of lipopeptides. It counts as cell-based. Particulars: previously determined. Here is the method: The optimal level of transfection achieved using the compound K3ATL3 had been previously determined as requiring ^- 5 μM K3ATL3. K3ATL3 was mixed with each of K3ATL1, K3ATL2, K3ATM3, K3ATP3 and K3ATC3 to give a total concentration of lipid of 5 μM in 100 μl at ratios of 0:5, 1:4, 2:3, 3:2, 4:1 and 5:0. K3ATM3 was similarly mixed with K3ATM1, K3ATM2 and K3ATP3. Each of the lipid mixtures was combined with a constant amount of pSVGAL DNA 0.5 μg/well and transfection allowed to proceed normally.
This was further tested by making a 4:1 molar mix of the two lipopeptides K3ATL3 and K3ATM3 and testing them in a standard plate assay which involved doubling dilutions of both the lipopeptide and DNA concentration. This was compared to expression achieved with using the pure compound K3ATL3 under the same conditions.

Data set [11] deals with Hela cells.
Description: as §5
The mark [12] stands for this setting: [nucleotide] 15.15 μM, [test agent] 10.5 μM.
[13] abbreviates: [nucleotide] 15.15 μM, [test agent] 21 μM.
The mark [14] stands for this setting: [nucleotide] 15.15 μM, [test agent] 42 μM.
Where [15] appears, read: [nucleotide] 30.3 μM, [test agent] 10.5 μM, *less strongly fluorescing for K3ATL3.
Where [16] appears, read: [nucleotide] 30.3 μM, [test agent] 21 μM.
Where [17] appears, read: [nucleotide] 30.3 μM, [test agent] 42 μM.
The mark [18] stands for this setting: [nucleotide] 60.6 μM, [test agent] 10.5 μM, *less strongly fluorescing for K3ATL3.
[19] abbreviates: [nucleotide] 60.6 μM, [test agent] 21 μM.
Where [20] appears, read: [nucleotide] 60.6 μM, [test agent] 42 μM.

With `CCCCCCCCCCCC(=O)OCC(COC(=O)CCCCCCCCCCC)(COC(=O)CCCCCCCCCCC)NC(=O)CCCCCCCNC(=O)[C@H](CCCCN)NC(=O)[C@H](CCCCN)NC(=O)[C@@H](N)CCCCN` [K3C7TL3], the “transfection compared to lipofectamine” value in the data set on PC3 and in the data set with Jurkat T cell line was “more effective transfection reagent than lipofectamine” throughout. Moreover, the “% cells fluorescing” value in the data set with CHO cells [1] (setting [12]), in the data set on CHO cells [1] (setting [13]), with CHO cells [1] (setting [14]), in the data set on CHO cells [1] (setting [15]), in the data set on CHO cells [1] (setting [16]) and in the data set with CHO cells [1] (setting [17]) was 100% each time. Besides, the “% cells fluorescing” value in the data set on CHO cells [1] (setting [18]), with CHO cells [1] (setting [19]) and in the data set on CHO cells [1] (setting [20]) was 100% each time. Also, the cytotoxicity at 3 h, 42 µM in “in vitro” was greater than 90%. In data set [2] (lipopeptide : nucleotide ratio 0.69 (optimal)), the DNA incorporation entry is reported as “most of the DNA was incorporated into collections of liposomes”. The “DNA free in solution” value in data set [2] (ratio 0.25:1 (suboptimal)) is “a large amount of DNA was free in the solution”. For the same compound, the “transfection efficiency compared to Lipofectamine” value in the data set on cells [3] is “more efficient at transfection than Lipofectamine”. For the same compound, the “transfection efficiency compared to standard single amino acid linker” value in the data set with cells [3] is given as “dramatically more efficient than compounds using the standard single amino acid linker”.
With `CCCCCCCCCCCC(=O)OCC(COC(=O)CCCCCCCCCCC)(COC(=O)CCCCCCCCCCC)NC(=O)[C@H](C)NC(=O)[C@H](CCCCN)NC(=O)[C@H](CCCCN)NC(=O)[C@@H](N)CCCCN` [K3ATL3] (H-KKKA-{NHC(CH2OLauroyl)3}), in the data set with Cos 1 cells [4] ("y" linker experiment c, Cos 1, trilysine trilaurate), the “transfection, linkers A, L and G compared” value is on record as “superior in achieving transfection”. Also, the “ratio [lipid]/[DNA] at which maximum was achieved” value with Cos 1 cells [4] (Table 2, Cos 1) is 1.39; in the data set with CHO cells [5] it was “.69”. Also, the “units β-gal” value in the data set on Cos 1 cells [4] (Table 2, Cos 1, highest reading of 72 conditions) is listed as 4.95 × 10^-4 units. For the same compound, the “β-gal (Cos 1)” value was 4.95 × 10^-4 in the data set on Cos 1 cells [4] (Table 3, Cos 1, # tested in a separate experiment) and 3.02 × 10^-4 with Cos 1 cells [4] (Table 3, Cos 1, highest reading of 72 conditions). Moreover, the “β-gal (CHO)” value in the data set with CHO cells [5] (highest reading of 72 conditions) was 7.89 × 10^-4. In addition, the “MTS OD490-655” value in the data set with Cos 1 cells [6] is recorded as 1.363. Besides, the “Viability (Cos 1)” value with Cos 1 cells [6] was found to be 1.36; with Cos 1 cells [7] it was 0.095. Also, the “Viability (CHO)” value in the data set on CHO cells [8] was 0.027. For the same compound, the “transfection ability, chain length C10 to C16” value in the data set with Hela cells [9] is reported as “peak transfection efficiency at C12”. The “% cells fluorescing” value with CHO cells [1] (setting [12]), in the data set on CHO cells [1] (setting [13]), in the data set on CHO cells [1] (setting [14]), in the data set on CHO cells [1] (setting [15]), in the data set with CHO cells [1] (setting [16]) and with CHO cells [1] (setting [17]) was 100% throughout. For the same compound, the “% cells fluorescing” value in the data set on CHO cells [1] (setting [18]), in the data set on CHO cells [1] (setting [19]) and in the data set on CHO cells [1] (setting [20]) was 100% each time. Further, the cytotoxicity at 3 h, 42 µM in the data set “in vitro” is greater than 90%. Moreover, in the data set with leg muscle, the “GFP fluorescence in motor end-plates” value is on record as “very strong fluorescence was seen in the motor end-plates”. Besides, the “GFP fluorescence in muscle cells” value in the data set on leg muscle is listed as “Punctate fluorescence was observed in the cytoplasm of muscle cells”. Besides, in the data set with cells [3], the “transfection efficiency compared to Lipofectamine” value is on record as “more efficient at transfection than Lipofectamine”. For the same compound, in the data set on cells [10], the “concentration required for optimal transfection” value is roughly 5 µM. In addition, the cell viability result in the data set with Hela cells [11] was “peak level of cell viability”.

(Values after US5906922A, “Delivery of nucleic acids” (Commonwealth Scientific and Industrial Research Organisation, priority 1994, dated 1999).)
